# Laboratory results as given in the supplement of paper PMC10307832.
# Experiments:
# Test in all cases: relative viability (nuclei count vs DMSO), 5 days (fraction); higher = more cells survive
# Carboplatin + Linsitinib = compound: C1CC(C1)(C(=O)O)C(=O)O.[NH2-].[NH2-].[Pt+2] [Carboplatin] + C[C@]1(O)C[C@@H](c2nc(-c3ccc4ccc(-c5ccccc5)nc4c3)c3c(N)nccn32)C1 [Linsitinib] (partner 1 µM)
# Procedure, shortened: (§1)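 Each reported value is a median over duplicate plates. It expresses relative viability: treated-well nuclei count divided by vehicle-well nuclei count. Lung cancer cell lines in 1536-well plates were dosed by pin tool a day after seeding, alone with one drug or with a fixed anchor-drug dose plus five library-drug doses (not always all listed) in √10 steps, and nuclei were counted after 5 days.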
# GSK126 + Foretinib = compound: CC[C@H](C)N1C=C(C2=C(C=C(C=C21)C3=CN=C(C=C3)N4CCNCC4)C(=O)NCC5=C(C=C(NC5=O)C)C)C [GSK126] + COc1cc2c(Oc3ccc(NC(=O)C4(C(=O)Nc5ccc(F)cc5)CC4)cc3F)ccnc2cc1OCCCN1CCOCC1 [Foretinib] (partner 0.25 µM)
# Procedure, shortened: as §1
# GSK126 + Decitabine = compound: CC[C@H](C)N1C=C(C2=C(C=C(C=C21)C3=CN=C(C=C3)N4CCNCC4)C(=O)NCC5=C(C=C(NC5=O)C)C)C [GSK126] + Nc1ncn([C@H]2C[C@H](O)[C@@H](CO)O2)c(=O)n1 [Decitabine] (partner 2 µM)
# Procedure, shortened: as §1
# MLN4924 + Alpelisib = compound: NS(=O)(=O)OC[C@@H]1C[C@@H](n2ccc3c(N[C@H]4CCc5ccccc54)ncnc32)C[C@@H]1O [MLN4924] + Cc1nc(NC(=O)N2CCC[C@H]2C(N)=O)sc1-c1ccnc(C(C)(C)C(F)(F)F)c1 [Alpelisib] (partner 2 µM)
# Procedure, shortened: as §1
Cell Line,relative viability (Carboplatin + Linsitinib; first compound 0.08 µM),relative viability (Carboplatin + Linsitinib; first compound 0.253 µM),relative viability (Carboplatin + Linsitinib; first compound 0.8 µM),relative viability (Carboplatin + Linsitinib; first compound 2.53 µM),relative viability (Carboplatin + Linsitinib; first compound 8 µM),relative viability (GSK126 + Foretinib; first compound 0.08 µM),relative viability (GSK126 + Foretinib; first compound 0.253 µM),relative viability (GSK126 + Foretinib; first compound 0.8 µM),relative viability (GSK126 + Foretinib; first compound 2.53 µM),relative viability (GSK126 + Foretinib; first compound 8 µM),relative viability (GSK126 + Decitabine; first compound 0.08 µM),relative viability (GSK126 + Decitabine; first compound 0.253 µM),relative viability (GSK126 + Decitabine; first compound 0.8 µM),relative viability (GSK126 + Decitabine; first compound 2.53 µM),relative viability (GSK126 + Decitabine; first compound 8 µM),relative viability (MLN4924 + Alpelisib; first compound 0.04 µM),relative viability (MLN4924 + Alpelisib; first compound 0.1265 µM),relative viability (MLN4924 + Alpelisib; first compound 0.4 µM),relative viability (MLN4924 + Alpelisib; first compound 1.265 µM),relative viability (MLN4924 + Alpelisib; first compound 4 µM)
PC-14,0.979,0.931,0.939,0.921,0.55,0.914,0.886,0.924,0.908,0.918,0.215,0.2,0.166,0.255,0.213,0.929,0.904,0.826,0.177,0.0924
HCC-15,0.9,0.892,0.888,0.812,0.7,1.08,1.04,1.08,1.04,0.887,0.739,0.656,0.685,0.59,0.609,0.537,0.23,0.163,0.0818,0.0862
NCI-H2347,1.05,1.04,0.967,0.893,0.841,0.842,0.861,1.07,1.25,1.35,0.478,0.588,0.607,0.567,0.648,1.02,0.865,0.638,0.33,0.382
NCI-H2228,0.601,1.08,0.719,0.653,0.641,0.871,0.828,0.789,0.832,0.628,,,,,,,0.833,0.415,0.176,0.18
NCI-H1563,1.32,1.13,1.22,1.26,1.04,1.01,0.9,0.934,0.893,0.95,,,,,,1.36,1.31,0.898,0.564,0.566
NCI-H1703,1.84,1.04,0.829,1.32,0.813,0.354,0.357,0.311,0.373,0.381,,,,,,0.22,0.177,0.189,0.135,0.121
NCI-H1648,,,,,,,,,,,0.561,0.562,0.554,0.633,0.492,,,,,
NCI-H1792,0.61,0.518,0.528,0.393,0.503,,,,,,0.716,0.546,0.498,0.412,0.575,0.685,0.758,0.944,0.441,0.21
NCI-H2170,,,,,,0.587,1.03,0.979,0.969,0.973,0.517,0.467,0.44,0.467,0.444,0.906,0.555,0.457,0.169,0.171
IA-LM,0.617,0.766,0.632,0.582,0.461,1.26,1.03,0.994,1.03,1.08,,,,,,0.494,0.2,0.153,0.0773,0.0621
HCC-44,0.668,0.685,0.606,0.478,0.543,,,,,,0.918,1.06,1.06,0.89,0.971,0.7,0.347,0.162,0.15,0.134
NCI-H1650,,,,,,1.45,1,0.934,1.12,1.09,0.437,0.541,0.522,0.402,0.495,,,,,
SW 900,,,,,,0.753,0.817,0.922,0.848,0.909,0.444,0.356,0.459,0.487,0.462,,,,,
NCI-H1299,1.02,0.993,0.953,0.965,0.956,1.14,1.13,1.05,1.07,1.11,,,,,,1.03,1.07,0.71,0.333,0.263
NCI-H1623,,,,,,0.941,0.888,0.916,0.883,0.799,,,,,,,,,,
NCI-H2342,,,,,,1.16,1.05,0.998,1.05,1.16,0.75,0.7,0.7,0.628,0.812,,,,,
NCI-H522,,,,,,,,,,,0.717,0.587,0.716,0.581,0.683,,,,,
ChaGo-K-1,,,,,,1.07,1.06,0.878,1,0.835,0.526,0.506,0.525,0.537,0.544,,,,,
EBC-1,0.957,0.993,0.896,0.918,0.835,0.117,0.113,0.0893,0.102,0.0935,,,,,,0.78,0.768,0.276,0.132,0.151
Calu-6,0.988,0.948,0.943,0.967,0.601,1.02,0.934,0.896,0.829,0.978,,,,,,1.09,1.07,0.388,0.14,0.148
CAL-12T,0.803,0.913,0.838,0.809,0.797,1.13,1.12,1.09,1,1.25,,,,,,1.09,1.18,0.39,0.529,0.191
